Among the data in ChEMBL document CHEMBL1132338, “Molecular recognition in nicotinic acetylcholine receptors: the importance of pi-cation interactions” (J Med Chem, 1999) are Ki values, retold here.

Molecules are shown by their SMILES.

Assay [1] has as its target Neuronal acetylcholine receptor; alpha4/beta2 (Homo sapiens, UniProt P17787+P43681). Nature of the assay: Binding affinity at heteropentameric Nicotinic acetylcholine receptor alpha4-beta2 subtype using […] as radioligand. The assay is classed as protein-complex assay.
The target of assay [2] is Neuronal acetylcholine receptor subunit alpha-7 (Homo sapiens, UniProt P36544). Kind of assay: Binding affinity at homopentameric Nicotinic acetylcholine receptor alpha-7 subtype using [3H]-alpha-bungarotoxin as radioligand.
Sequence of Neuronal acetylcholine receptor subunit alpha-7 (P36544 whole entry): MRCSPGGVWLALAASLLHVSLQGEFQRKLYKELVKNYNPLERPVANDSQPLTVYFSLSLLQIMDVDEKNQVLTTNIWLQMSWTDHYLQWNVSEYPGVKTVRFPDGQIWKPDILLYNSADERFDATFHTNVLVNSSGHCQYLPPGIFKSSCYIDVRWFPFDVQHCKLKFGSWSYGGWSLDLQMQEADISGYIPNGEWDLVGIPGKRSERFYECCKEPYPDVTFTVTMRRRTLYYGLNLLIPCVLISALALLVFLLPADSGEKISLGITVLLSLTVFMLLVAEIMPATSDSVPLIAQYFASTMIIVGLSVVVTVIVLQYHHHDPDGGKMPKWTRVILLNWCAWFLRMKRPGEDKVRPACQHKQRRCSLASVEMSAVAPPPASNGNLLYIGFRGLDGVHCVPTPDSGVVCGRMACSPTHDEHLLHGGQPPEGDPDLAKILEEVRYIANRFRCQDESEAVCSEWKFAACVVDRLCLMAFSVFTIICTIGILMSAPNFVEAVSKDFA

Sequence of Neuronal acetylcholine receptor; alpha4/beta2 (P17787 whole entry): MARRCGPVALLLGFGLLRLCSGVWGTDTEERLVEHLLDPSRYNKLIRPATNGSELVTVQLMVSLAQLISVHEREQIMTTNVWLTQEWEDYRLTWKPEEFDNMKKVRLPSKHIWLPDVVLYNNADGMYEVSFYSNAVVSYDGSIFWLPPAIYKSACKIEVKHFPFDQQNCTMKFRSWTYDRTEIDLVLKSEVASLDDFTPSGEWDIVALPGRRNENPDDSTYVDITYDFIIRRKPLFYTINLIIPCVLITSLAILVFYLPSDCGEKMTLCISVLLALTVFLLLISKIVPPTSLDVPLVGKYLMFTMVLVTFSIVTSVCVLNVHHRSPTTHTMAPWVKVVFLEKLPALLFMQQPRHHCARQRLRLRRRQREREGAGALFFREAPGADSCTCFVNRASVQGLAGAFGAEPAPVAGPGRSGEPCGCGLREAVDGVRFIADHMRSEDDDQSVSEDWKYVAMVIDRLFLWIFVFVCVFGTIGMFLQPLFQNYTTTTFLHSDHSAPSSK
Sequence of Neuronal acetylcholine receptor; alpha4/beta2 (P43681 whole entry): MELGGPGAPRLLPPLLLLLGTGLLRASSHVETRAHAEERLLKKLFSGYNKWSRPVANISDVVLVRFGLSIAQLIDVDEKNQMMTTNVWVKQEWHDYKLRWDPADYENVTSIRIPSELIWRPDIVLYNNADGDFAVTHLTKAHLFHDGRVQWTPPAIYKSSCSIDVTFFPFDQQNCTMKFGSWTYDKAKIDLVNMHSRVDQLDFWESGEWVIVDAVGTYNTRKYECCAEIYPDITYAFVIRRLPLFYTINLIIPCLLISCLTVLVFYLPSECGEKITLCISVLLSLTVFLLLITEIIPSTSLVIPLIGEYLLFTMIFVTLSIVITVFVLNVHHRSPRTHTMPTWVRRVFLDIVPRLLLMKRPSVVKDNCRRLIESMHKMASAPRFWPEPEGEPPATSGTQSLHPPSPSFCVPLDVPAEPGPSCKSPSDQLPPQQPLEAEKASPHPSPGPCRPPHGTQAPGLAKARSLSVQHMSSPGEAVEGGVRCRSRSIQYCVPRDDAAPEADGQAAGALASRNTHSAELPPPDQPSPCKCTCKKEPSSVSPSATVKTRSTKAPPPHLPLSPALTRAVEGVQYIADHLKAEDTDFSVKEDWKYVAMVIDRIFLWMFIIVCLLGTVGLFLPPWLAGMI

The Ki is a measure of affinity in units of concentration, obtained from inhibition or displacement. Higher therefore signals a looser hold on the target. Consider `c1cncc(C2CCCCN2)c1` (stereo not drawn) [DL-ANABASINE], for which the values for the Ki in assay [1] and in assay [2] were 92 nM and 450 nM, respectively.
As for `c1cncc([C@@H]2CCCN2)c1` [NORNICOTINE], the Ki in assay [2] stood at 730 nM.
As for `C[N+](C)(C)C` [TETRAMETHYLAMMONIUM ION], the Ki was 24 nM in assay [1] and 2300 nM in assay [2].
On to `c1cncc(C2CCN2)c1` (stereo not given), for which the affinity in assay [1] corresponds to a Ki of 1.1 nM. In other words, the single-digit nanomolar range.
Same read-out and setting: the value for `CN1C2CCC1C(c1ccc(Cl)nc1)C2` (stereo not given) was 0.26 nM.
For the compound `Clc1ccc(C2CC3CCC2N3)cn1` (stereo not given) [EPIBATIDINE], in assay [2], the Ki worked out at 25 nM.
As for `CN1CCCCC1c1cccnc1` (stereo not given), the Ki in assay [1] turned out to be 450 nM; in assay [2], 9700 nM.
